As a reminder, the inhibition is the change of the read-out against control, counted positive when it falls.

Inhibition data for 10 compounds are collected here from PMC9927415, “Tyrosine Kinase Inhibitors Display Potent Activity against Cryptosporidium parvum” (Microbiology Spectrum, 2022).

What all share (assay): KINOMEscan competitive binding, whole panel
In assay [1] the target is T1, panel of 203 kinases (Homo sapiens, UniProt P15056).
T1 construct: purchased DiscoverX (KINOMEscan)
The conditions noted are these: 10 µM, n=1; kinase BRAF; read-out: Percent inhibition BRAF. The method in brief: (§1)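 T7 phage-fused kinases; compound displaces immobilized ATP-site probe ligand; bead-bound kinase quantified; % inhibition reported.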

Assay [2] has as its target T2, panel of 203 kinases (Homo sapiens, UniProt P16591).
T2 construct: purchased DiscoverX (KINOMEscan)
The conditions noted are these: 10 µM, n=1; kinase FER; read-out: Percent inhibition FER. The method in brief:
as §1

Assay [3] addresses T3, panel of 203 kinases (Homo sapiens, UniProt P31749).
T3 construct: purchased DiscoverX (KINOMEscan)
The conditions noted are these: 10 µM, n=1; kinase AKT1; read-out: Percent inhibition AKT1. The method in brief:
as §1

The target of assay [4] is T4, panel of 203 kinases (Homo sapiens, UniProt Q13131).
T4 construct: purchased DiscoverX (KINOMEscan)
The conditions noted are these: 10 µM, n=1; kinase AMPK-alpha1; read-out: Percent inhibition AMPK-alpha1. The method in brief: as §1

Assay [5] has as its target T5, panel of 203 kinases (Homo sapiens, UniProt Q13188).
T5 construct: purchased DiscoverX (KINOMEscan)
T5 sequence (Q13188 1-491): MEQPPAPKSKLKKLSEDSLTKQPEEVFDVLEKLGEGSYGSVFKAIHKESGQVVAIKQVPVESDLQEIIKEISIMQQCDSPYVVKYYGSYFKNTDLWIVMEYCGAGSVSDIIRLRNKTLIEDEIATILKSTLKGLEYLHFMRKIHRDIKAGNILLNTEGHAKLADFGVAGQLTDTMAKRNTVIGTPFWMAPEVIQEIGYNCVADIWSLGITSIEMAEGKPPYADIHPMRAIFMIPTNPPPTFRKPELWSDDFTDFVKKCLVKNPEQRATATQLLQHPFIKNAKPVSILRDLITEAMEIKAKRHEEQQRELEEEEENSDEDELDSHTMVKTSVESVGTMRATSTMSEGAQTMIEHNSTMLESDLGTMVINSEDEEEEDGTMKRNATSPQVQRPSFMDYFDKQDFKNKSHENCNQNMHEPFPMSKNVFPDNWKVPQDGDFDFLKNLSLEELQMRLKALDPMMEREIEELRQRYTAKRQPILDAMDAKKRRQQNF
The conditions noted are these: 10 µM, n=1; kinase MST2; read-out: Percent inhibition MST2. The method in brief:
as §1

Assay [6] addresses T6, panel of 203 kinases (Homo sapiens, UniProt Q13557).
T6 construct: purchased DiscoverX (KINOMEscan)
The conditions noted are these: 10 µM, n=1; kinase CAMK2D; read-out: Percent inhibition CAMK2D. The method in brief: as §1

Assay [7] addresses T7, panel of 203 kinases (Homo sapiens, UniProt Q13705).
T7 construct: purchased DiscoverX (KINOMEscan)
The conditions noted are these: 10 µM, n=1; kinase ACVR2B; read-out: Percent inhibition ACVR2B. An outline of the steps:
as §1

The target of assay [8] is T8, panel of 203 kinases (Homo sapiens, UniProt Q16539).
T8 construct: purchased DiscoverX (KINOMEscan)
T8 sequence (Q16539 whole entry): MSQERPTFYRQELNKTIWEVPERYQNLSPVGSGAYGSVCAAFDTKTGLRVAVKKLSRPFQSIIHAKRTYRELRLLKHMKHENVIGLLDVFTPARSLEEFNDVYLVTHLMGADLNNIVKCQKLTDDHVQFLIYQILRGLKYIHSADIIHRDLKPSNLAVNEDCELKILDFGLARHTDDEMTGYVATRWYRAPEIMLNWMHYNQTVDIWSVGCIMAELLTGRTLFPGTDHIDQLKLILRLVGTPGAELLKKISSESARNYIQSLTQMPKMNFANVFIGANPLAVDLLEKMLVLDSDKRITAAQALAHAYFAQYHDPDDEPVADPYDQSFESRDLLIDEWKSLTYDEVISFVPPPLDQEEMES
The conditions noted are these: 10 µM, n=1; kinase p38-alpha; read-out: Percent inhibition p38-alpha. An outline of the steps: as §1

For assay [9], the target named is T9, panel of 203 kinases (Homo sapiens, UniProt Q92918).
T9 construct: purchased DiscoverX (KINOMEscan)
T9 sequence (Q92918 whole entry): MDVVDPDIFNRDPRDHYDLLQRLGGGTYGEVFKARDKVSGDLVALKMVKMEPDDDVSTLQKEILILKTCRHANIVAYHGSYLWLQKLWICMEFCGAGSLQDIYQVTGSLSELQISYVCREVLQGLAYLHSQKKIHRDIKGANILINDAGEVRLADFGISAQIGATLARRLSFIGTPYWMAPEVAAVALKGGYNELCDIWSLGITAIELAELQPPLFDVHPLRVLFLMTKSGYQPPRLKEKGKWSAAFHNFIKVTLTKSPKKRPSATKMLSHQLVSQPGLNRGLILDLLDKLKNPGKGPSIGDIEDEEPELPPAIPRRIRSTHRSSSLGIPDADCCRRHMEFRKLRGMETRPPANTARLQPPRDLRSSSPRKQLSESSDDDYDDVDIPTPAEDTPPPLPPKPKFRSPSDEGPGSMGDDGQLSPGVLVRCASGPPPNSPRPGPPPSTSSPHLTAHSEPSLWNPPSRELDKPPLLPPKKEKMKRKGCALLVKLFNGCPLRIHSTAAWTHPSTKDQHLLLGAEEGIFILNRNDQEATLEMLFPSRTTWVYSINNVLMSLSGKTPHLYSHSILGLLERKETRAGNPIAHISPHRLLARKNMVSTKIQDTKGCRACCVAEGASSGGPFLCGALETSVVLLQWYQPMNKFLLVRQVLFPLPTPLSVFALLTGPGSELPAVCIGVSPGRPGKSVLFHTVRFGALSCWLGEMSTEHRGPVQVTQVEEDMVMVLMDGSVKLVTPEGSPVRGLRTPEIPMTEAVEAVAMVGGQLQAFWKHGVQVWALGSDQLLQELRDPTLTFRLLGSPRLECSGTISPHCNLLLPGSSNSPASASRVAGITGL
The note with it: 10 µM, n=1; kinase MAP4K1; read-out: Percent inhibition MAP4K1. An outline of the steps: as §1

In assay [10] the target is T10, panel of 203 kinases (Homo sapiens, UniProt Q9H1R3).
T10 construct: purchased DiscoverX (KINOMEscan)
T10 sequence (Q9H1R3 whole entry): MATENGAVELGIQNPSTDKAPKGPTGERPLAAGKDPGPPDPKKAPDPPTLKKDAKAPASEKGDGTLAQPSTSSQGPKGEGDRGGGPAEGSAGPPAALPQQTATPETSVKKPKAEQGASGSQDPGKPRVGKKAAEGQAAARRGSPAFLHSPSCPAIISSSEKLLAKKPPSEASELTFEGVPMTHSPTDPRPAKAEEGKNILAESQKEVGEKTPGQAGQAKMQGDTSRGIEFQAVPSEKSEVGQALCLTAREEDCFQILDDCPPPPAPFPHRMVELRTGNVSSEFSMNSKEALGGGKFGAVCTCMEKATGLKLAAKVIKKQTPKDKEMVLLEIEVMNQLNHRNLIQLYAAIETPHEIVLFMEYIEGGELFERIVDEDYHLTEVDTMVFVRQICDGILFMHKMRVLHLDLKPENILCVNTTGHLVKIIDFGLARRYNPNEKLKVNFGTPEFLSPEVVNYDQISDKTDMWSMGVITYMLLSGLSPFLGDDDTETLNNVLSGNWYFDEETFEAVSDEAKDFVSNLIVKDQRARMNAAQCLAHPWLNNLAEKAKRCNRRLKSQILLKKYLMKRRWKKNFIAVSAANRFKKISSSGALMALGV
The conditions noted are these: 10 µM, n=1; kinase MYLK2; read-out: Percent inhibition MYLK2. An outline of the steps:
as §1

The target of assay [11] is T11, panel of 203 kinases (Homo sapiens, UniProt Q9UF33).
T11 construct: purchased DiscoverX (KINOMEscan)
T11 sequence (Q9UF33 23-1036): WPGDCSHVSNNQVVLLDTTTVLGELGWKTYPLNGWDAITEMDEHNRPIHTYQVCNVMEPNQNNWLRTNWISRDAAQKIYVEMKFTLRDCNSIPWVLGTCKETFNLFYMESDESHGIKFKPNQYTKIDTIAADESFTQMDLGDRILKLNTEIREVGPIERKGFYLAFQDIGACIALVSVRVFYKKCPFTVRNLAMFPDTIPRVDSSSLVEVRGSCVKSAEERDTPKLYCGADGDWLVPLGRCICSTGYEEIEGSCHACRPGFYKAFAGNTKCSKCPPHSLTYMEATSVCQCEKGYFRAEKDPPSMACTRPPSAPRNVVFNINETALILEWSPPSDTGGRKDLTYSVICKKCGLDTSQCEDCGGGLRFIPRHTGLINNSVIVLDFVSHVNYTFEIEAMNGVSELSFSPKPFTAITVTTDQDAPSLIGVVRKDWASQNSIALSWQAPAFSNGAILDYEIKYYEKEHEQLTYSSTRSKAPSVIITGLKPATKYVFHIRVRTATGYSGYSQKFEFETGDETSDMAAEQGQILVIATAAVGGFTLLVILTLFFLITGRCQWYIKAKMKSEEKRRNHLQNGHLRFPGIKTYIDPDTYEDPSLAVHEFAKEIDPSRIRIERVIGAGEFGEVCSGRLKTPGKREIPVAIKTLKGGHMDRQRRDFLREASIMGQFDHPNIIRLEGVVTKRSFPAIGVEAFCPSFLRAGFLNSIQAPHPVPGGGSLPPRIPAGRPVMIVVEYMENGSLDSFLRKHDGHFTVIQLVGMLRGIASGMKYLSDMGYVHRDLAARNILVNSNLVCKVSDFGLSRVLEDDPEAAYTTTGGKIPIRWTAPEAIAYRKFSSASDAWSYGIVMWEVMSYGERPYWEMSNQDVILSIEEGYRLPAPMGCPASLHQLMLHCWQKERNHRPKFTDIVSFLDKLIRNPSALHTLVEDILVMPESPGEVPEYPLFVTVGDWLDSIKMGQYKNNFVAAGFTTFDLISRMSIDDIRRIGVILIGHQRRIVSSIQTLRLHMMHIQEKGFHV
The conditions noted are these: 10 µM, n=1; kinase EPHA6; read-out: Percent inhibition EPHA6. An outline of the steps:
as §1

T3 sequence (P31749 whole entry): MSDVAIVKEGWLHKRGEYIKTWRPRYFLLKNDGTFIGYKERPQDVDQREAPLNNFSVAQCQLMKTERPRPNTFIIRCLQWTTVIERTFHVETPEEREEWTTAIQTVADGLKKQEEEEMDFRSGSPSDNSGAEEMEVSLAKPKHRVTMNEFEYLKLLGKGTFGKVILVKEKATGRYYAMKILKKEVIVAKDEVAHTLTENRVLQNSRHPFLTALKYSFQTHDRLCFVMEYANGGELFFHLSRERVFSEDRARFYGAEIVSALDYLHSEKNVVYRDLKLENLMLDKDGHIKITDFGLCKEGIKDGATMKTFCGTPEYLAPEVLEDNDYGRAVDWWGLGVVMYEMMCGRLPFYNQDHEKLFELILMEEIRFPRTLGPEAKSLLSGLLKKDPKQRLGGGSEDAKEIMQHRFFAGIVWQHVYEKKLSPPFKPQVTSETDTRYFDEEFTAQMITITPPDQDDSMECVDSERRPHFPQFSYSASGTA
T2 sequence (P16591 whole entry): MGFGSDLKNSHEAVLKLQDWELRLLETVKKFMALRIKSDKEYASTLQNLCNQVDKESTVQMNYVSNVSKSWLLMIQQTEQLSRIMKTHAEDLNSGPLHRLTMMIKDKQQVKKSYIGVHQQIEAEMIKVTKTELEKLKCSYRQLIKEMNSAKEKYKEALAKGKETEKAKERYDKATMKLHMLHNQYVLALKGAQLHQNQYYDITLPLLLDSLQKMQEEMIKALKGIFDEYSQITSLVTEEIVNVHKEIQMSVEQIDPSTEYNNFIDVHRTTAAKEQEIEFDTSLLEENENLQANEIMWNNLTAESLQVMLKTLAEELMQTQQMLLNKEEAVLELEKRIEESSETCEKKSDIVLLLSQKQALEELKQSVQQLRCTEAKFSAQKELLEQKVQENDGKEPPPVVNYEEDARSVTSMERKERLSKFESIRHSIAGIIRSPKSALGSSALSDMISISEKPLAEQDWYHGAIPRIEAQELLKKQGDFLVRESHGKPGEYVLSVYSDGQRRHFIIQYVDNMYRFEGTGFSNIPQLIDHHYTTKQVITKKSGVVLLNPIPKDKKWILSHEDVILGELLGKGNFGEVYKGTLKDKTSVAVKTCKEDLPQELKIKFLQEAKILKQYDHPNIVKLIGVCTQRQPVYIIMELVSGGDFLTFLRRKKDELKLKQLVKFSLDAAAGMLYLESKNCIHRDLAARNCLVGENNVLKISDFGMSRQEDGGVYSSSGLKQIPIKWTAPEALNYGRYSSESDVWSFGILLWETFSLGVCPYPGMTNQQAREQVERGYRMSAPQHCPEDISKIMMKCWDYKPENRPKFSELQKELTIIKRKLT
T1 sequence (P15056 whole entry): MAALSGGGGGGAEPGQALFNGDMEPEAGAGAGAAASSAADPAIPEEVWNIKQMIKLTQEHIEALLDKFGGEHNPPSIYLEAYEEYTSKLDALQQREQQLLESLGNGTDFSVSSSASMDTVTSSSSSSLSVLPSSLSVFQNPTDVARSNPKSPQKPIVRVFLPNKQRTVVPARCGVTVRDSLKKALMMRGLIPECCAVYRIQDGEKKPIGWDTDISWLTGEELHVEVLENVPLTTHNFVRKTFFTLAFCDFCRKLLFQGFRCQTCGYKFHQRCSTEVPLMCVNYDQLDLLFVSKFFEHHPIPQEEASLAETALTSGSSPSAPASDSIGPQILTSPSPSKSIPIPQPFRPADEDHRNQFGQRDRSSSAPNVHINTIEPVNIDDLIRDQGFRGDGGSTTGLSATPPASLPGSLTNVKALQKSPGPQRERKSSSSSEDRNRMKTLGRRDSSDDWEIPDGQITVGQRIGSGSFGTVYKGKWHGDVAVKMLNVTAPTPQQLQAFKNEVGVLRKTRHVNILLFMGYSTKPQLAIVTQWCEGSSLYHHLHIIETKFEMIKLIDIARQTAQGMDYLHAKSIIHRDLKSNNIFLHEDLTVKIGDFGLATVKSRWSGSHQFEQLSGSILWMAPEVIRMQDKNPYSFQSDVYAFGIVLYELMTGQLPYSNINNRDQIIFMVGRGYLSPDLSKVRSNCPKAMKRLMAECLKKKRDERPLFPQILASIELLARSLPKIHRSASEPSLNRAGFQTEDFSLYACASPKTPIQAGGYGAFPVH
T6 sequence (Q13557 whole entry): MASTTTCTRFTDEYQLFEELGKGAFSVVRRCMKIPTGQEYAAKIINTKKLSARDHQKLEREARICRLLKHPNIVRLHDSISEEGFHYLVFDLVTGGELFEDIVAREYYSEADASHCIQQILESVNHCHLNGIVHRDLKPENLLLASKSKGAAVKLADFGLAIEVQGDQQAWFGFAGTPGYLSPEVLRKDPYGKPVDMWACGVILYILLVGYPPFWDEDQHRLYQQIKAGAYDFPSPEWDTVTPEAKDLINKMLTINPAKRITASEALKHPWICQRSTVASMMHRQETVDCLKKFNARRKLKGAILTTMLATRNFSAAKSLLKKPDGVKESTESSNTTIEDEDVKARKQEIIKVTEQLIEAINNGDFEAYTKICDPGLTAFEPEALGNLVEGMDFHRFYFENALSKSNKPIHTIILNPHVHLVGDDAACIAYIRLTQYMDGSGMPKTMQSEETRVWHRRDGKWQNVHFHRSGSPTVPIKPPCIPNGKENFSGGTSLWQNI
T7 sequence (Q13705 19-512): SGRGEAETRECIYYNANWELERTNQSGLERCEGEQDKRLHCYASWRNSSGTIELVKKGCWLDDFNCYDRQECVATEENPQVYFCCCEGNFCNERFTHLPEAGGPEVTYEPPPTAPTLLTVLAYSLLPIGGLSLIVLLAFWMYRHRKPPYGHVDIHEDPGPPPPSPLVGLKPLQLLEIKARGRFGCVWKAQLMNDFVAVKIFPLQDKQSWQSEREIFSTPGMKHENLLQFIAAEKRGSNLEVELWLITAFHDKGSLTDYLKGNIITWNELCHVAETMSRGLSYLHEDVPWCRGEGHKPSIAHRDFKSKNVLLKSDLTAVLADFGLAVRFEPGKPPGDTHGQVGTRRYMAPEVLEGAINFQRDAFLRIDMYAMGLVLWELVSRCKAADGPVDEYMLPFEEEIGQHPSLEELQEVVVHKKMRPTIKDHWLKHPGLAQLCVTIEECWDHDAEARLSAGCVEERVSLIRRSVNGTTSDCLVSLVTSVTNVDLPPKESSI

For `CN1CCN(c2ccc(Nc3nccc(-c4cnn5ncccc45)n3)cc2C#N)CC1` [Compound 1], the inhibition at 10 µM on panel of 203 kinases [1] amounted to 0%; at panel of 203 kinases [2] it was 0%; on panel of 203 kinases [3], 0%; at panel of 203 kinases [4], 75.7%; at panel of 203 kinases [5] it was 100%; on panel of 203 kinases [6] it was 96.5%. Also, the inhibition at 10 µM on panel of 203 kinases [7] came to 0%; at panel of 203 kinases [8], 0%; at panel of 203 kinases [9] it was 99.5%; on panel of 203 kinases [10], 96.8%; on panel of 203 kinases [11], 0%.
As for `COc1ccc(Nc2nccc(-c3cnn4ncccc34)n2)cc1` [Compound 2], the inhibition at 10 µM at panel of 203 kinases [1] was found to be 99.6%; on panel of 203 kinases [2], 74.7%; at panel of 203 kinases [3], 0%; at panel of 203 kinases [4], 0%; at panel of 203 kinases [5], 89.9%; at panel of 203 kinases [6], 79.5%. Also, the inhibition at 10 µM at panel of 203 kinases [7] was 80.3%; on panel of 203 kinases [8], 0%; on panel of 203 kinases [9], 0%; on panel of 203 kinases [10] it was 80.5%; on panel of 203 kinases [11], 65.1%.
For `Cc1ccc(O)cc1Nc1ccnc(Nc2cccc(C(N)=O)c2)n1` [Compound 3], the inhibition at 10 µM on panel of 203 kinases [1] is 0%; at panel of 203 kinases [2] it was 95%; on panel of 203 kinases [3] it was 0%; on panel of 203 kinases [4] it was 0%; at panel of 203 kinases [5], 94.4%; at panel of 203 kinases [6], 0%. The inhibition at 10 µM at panel of 203 kinases [7] is 100%; on panel of 203 kinases [8] it was 77.8%; on panel of 203 kinases [9], 83.9%; on panel of 203 kinases [10] it was 83.2%; on panel of 203 kinases [11], 100%.
`Cc1ccc(O)cc1N(C)c1ccnc(Nc2cccc(S(N)(=O)=O)c2)n1` [Compound 4]: the inhibition at 10 µM is 0% at panel of 203 kinases [1]; 99.6% at panel of 203 kinases [2]; 0% on panel of 203 kinases [3]; 0% at panel of 203 kinases [4]; 99.2% on panel of 203 kinases [5]; 0% on panel of 203 kinases [6]. Besides, the inhibition at 10 µM at panel of 203 kinases [7] worked out at 100%; at panel of 203 kinases [8], 99.1%; at panel of 203 kinases [9] it was 99.5%; on panel of 203 kinases [10] it was 0%; on panel of 203 kinases [11], 100%.
As to `Fc1cccc(COc2ccc(Nc3ncnc4c3CN(CCN3CCOCC3)CC4)cc2Cl)c1` [Compound 6], the inhibition at 10 µM on panel of 203 kinases [1], at panel of 203 kinases [2], at panel of 203 kinases [3], at panel of 203 kinases [4], on panel of 203 kinases [5] and on panel of 203 kinases [6] was 0% in each case. In addition, the inhibition at 10 µM on panel of 203 kinases [7], on panel of 203 kinases [8], at panel of 203 kinases [9], on panel of 203 kinases [10] and on panel of 203 kinases [11] was 0% throughout.
Consider `COc1cc(Nc2nccc(-c3sc(N)nc3-c3cccc(NC(=O)c4c(F)cccc4F)c3)n2)cc(OC)c1OC` [Compound 7], for which the inhibition at 10 µM was found to be 100% at panel of 203 kinases [1]; 99% at panel of 203 kinases [2]; 0% at panel of 203 kinases [3]; 98.4% at panel of 203 kinases [4]; 99.9% at panel of 203 kinases [5]; 0% at panel of 203 kinases [6]. The inhibition at 10 µM on panel of 203 kinases [7] amounted to 97.5%; at panel of 203 kinases [8], 98.5%; at panel of 203 kinases [9], 96.3%; at panel of 203 kinases [10], 97%; on panel of 203 kinases [11], 100%.
As for `C[C@@H](Oc1cc(-c2cnc3ccccn23)sc1C(N)=O)c1ccccc1Cl` [Compound 8], the inhibition at 10 µM at panel of 203 kinases [1] is 0%; on panel of 203 kinases [2] it was 0%; at panel of 203 kinases [3] it was 0%; on panel of 203 kinases [4] it was 0%; at panel of 203 kinases [5], 81%; on panel of 203 kinases [6], 0%. Further, the inhibition at 10 µM on panel of 203 kinases [7] amounted to 0%; on panel of 203 kinases [8] it was 0%; at panel of 203 kinases [9], 0%; on panel of 203 kinases [10], 66.5%; at panel of 203 kinases [11] it was 0%.
Regarding `c1ccc(COc2cccc(-c3ccnc4[nH]ccc34)c2)cc1` [Compound 9], the inhibition at 10 µM on panel of 203 kinases [1], at panel of 203 kinases [2], on panel of 203 kinases [3], at panel of 203 kinases [4], on panel of 203 kinases [5] and at panel of 203 kinases [6] was 0% each time. For the same compound, the inhibition at 10 µM on panel of 203 kinases [7], on panel of 203 kinases [8], on panel of 203 kinases [9], on panel of 203 kinases [10] and at panel of 203 kinases [11] was 0% each time.
On to `Clc1ccc(Nc2ncc(-c3ccccc3)s2)cc1` [Compound 10], for which the inhibition at 10 µM on panel of 203 kinases [1], at panel of 203 kinases [2], at panel of 203 kinases [3], at panel of 203 kinases [4], at panel of 203 kinases [5] and on panel of 203 kinases [6] was 0% throughout. Also, the inhibition at 10 µM at panel of 203 kinases [7], on panel of 203 kinases [8], on panel of 203 kinases [9], on panel of 203 kinases [10] and at panel of 203 kinases [11] was 0% in each case.
For `Nc1ncc2c(-c3ccncc3)c[nH]c2n1` [Compound 11], the inhibition at 10 µM is 0% on panel of 203 kinases [1]; 0% at panel of 203 kinases [2]; 0% on panel of 203 kinases [3]; 0% on panel of 203 kinases [4]; 86.8% on panel of 203 kinases [5]; 0% on panel of 203 kinases [6]. Moreover, the inhibition at 10 µM on panel of 203 kinases [7] is 65.7%; at panel of 203 kinases [8], 0%; on panel of 203 kinases [9], 0%; at panel of 203 kinases [10], 84.9%; on panel of 203 kinases [11] it was 0%.
